Results published in a compilation of properties of binary mixtures (doi:10.1021/acs.jced.5b00753).

Assay: xn = mol fraction of the nth substance listed
Conditions: 101 kPa

CC[n+]1ccn(C)c1.F[B-](F)(F)F + CC(=O)N(C)C
viscosity [mPa·s]
Conditions | x2 = 0 | x2 = 0.0996 | x2 = 0.1998 | x2 = 0.2995 | x2 = 0.3989 | x2 = 0.5005 | x2 = 0.6 | x2 = 0.6996 | x2 = 0.8001 | x2 = 0.8994
303.15 K | – | 22.75 | – | 13.99 | 10.62 | 7.83 | – | – | – | 1.549
313.15 K | 20.41 | 16.86 | 13.59 | 10.65 | 8.23 | – | – | 3.147 | 2.092 | 1.328
323.15 K | – | 12.8 | 10.45 | – | 6.555 | 4.982 | 3.69 | 2.638 | 1.79 | 1.154
333.15 K | 12.08 | 10.09 | 8.31 | – | – | 4.122 | 3.115 | 2.252 | 1.563 | 1.029

CC(=O)N(C)C + CC[n+]1ccn(C)c1.F[B-](F)(F)F
x1 = 1
Conditions | viscosity [mPa·s]
303.15 K | 0.862
313.15 K | 0.758
323.15 K | 0.673
333.15 K | 0.602

CC[n+]1ccn(C)c1.F[B-](F)(F)F + CS(C)=O
viscosity [mPa·s]
Conditions | x2 = 0 | x2 = 0.1001 | x2 = 0.2007 | x2 = 0.2996 | x2 = 0.4 | x2 = 0.4996 | x2 = 0.6002 | x2 = 0.7002 | x2 = 0.7996 | x2 = 0.9002
303.15 K | 28 | 24.39 | – | – | 14.08 | 11.13 | – | 6.249 | – | 2.928
313.15 K | 20.41 | 17.83 | 15.25 | – | 10.59 | 8.46 | 6.575 | 4.936 | 3.515 | 2.385
323.15 K | 15.35 | 13.54 | 11.62 | 9.91 | – | 6.667 | 5.296 | 3.971 | 2.893 | –
333.15 K | 12.08 | 10.64 | 9.18 | 7.87 | 6.571 | 5.382 | 4.335 | 3.294 | 2.438 | –

CS(C)=O + CC[n+]1ccn(C)c1.F[B-](F)(F)F
x1 = 1
Conditions | viscosity [mPa·s]
303.15 K | 1.784
313.15 K | 1.498
323.15 K | 1.27
333.15 K | 1.095

CN(C)C=O + CC[n+]1ccn(C)c1.F[B-](F)(F)F
x1 = 1
Conditions | viscosity [mPa·s]
303.15 K | 0.744
323.15 K | 0.6

CC[n+]1ccn(C)c1.F[B-](F)(F)F + CN(C)C=O
viscosity [mPa·s]
Conditions | x2 = 0 | x2 = 0.1016 | x2 = 0.2016 | x2 = 0.2994 | x2 = 0.3987 | x2 = 0.5005 | x2 = 0.6004 | x2 = 0.7 | x2 = 0.7997 | x2 = 0.8999
303.15 K | 28 | 21.61 | – | 12.55 | 9.33 | 6.703 | 4.72 | 3.214 | 2.114 | 1.305
313.15 K | – | 16.03 | 12.53 | 9.74 | – | – | 3.867 | 2.689 | – | 1.144
323.15 K | – | 12.29 | 9.8 | – | 5.935 | – | – | 2.293 | 1.567 | –
333.15 K | 12.08 | 9.72 | 7.83 | 6.291 | 4.93 | 3.744 | 2.775 | 1.993 | 1.387 | 0.899
